The test system of one assay is IFN. Kind of assay: Cytokine Induction in Human Cells: interferon (IFN) secreted by PBMCs, A549/encephalomyocarditis bioassay. The note with it: 18 to 24 hours. It counts as cell-based. The text has this: (§1) An in vitro human blood cell system was used to assess cytokine induction by compounds of the invention. Activity is based on the measurement of interferon and tumor necrosis factor (ℑ) (IFN and TNF, respectively) secreted into culture media as described by Testerman et. al. In “Cytokine Induction by the Immunomodulators Imiquimod and S-27609”, Journal of Leukocyte Biology, 58, 365-372 (September, 1995). Blood Cell Preparation for Culture
(§2) Whole blood is collected by venipuncture into EDTA vacutainer tubes from healthy human donors. Peripheral blood mononuclear cells (PBMCs) are separated from whole blood by Histopaque®-1077 (Sigma Chemicals, St. Louis, Mo.) density gradient centrifugation. The PBMCs are suspended at 1.5-2×10^6 cells/mL in RPMI 1640 medium containing 10% fetal bovine serum, 2 mM L-glutamine and 1% penicillin/streptomycin solution (RPMI complete). 1 mL portions of PBMC suspension are added to 24 well flat bottom sterile tissue culture plates.
(§3) The compounds are solubilized in dimethyl sulfoxide (DMSO). The DMSO concentration should not exceed a final concentration of 1% for addition to the culture wells. The compounds are generally tested in a concentration range of from 0.1 to 100 μM.
(§4) The solution of test compound is added to the wells containing 1 mL of PBMCs in media. The plates are covered with plastic lids, mixed gently and then incubated for 18 to 24 hours at 37° C. with a 5% carbon dioxide atmosphere.
(§5) Following incubation the plates are centrifuged for 5-10 minutes at 1000 rpm (˜200×g) at 4° C. The cell culture supernatant is removed with a sterile polypropylene pipet and transferred to a 2 mL sterile cryotube. Samples are maintained at −70° C. until analysis.
Interferon is determined by bioassay using A549 human lung carcinoma cells challenged with encephalomyocarditis. The details of the bioassay method have been described by G. L. Brennan and L. H. Kronenberg in “Automated Bioassay of Interferons in Micro-test Plates”, Biotechniques, June/July 78, 1983, incorporated herein by reference. Briefly stated the method is as follows: A549 cells are incubated with samples and standard interferon dilutions at 37° C. for 24 hours. The incubated cells are then infected with an inoculum of encephalomyocarditis virus. The infected cells are incubated for an additional 24 hours at 37° C. before quantifying for viral cytopathic effect. The viral cytopathic effect is quantified by staining followed by visual scoring of the plates. Results are expressed as alpha reference units/mL based on the value obtained for NIH Human Leukocyte IFN standard.

For the next assay, the system named is TNF. Kind of assay: Cytokine Induction in Human Cells: tumor necrosis factor (TNF) secreted by PBMCs, ELISA. It counts as cell-based. The note with it: 18 to 24 hours.
Text: as §1, §2, §3, §4, §5
Tumor necrosis factor (ℑ) (TNF) concentration is determined using an ELISA kit available from Genzyme, Cambridge, Mass. The results are expressed as pg/mL.
(In general: In an ELISA, binding on a coated surface is turned into a signal by an enzyme label.)

Counter-ions that a name gives are not always drawn.
Further: call rule not given here.

Consider `CCCCc1nc2c(N)nc3cccnc3c2n1CCCCNC(=O)Nc1ccccc1` [Example 47, N-[4-(4-Amino-2-butyl-1H-imidazo[4,5-c][1,5]naphthyridin-1-yl)butyl]-N′-phenylurea], for which the IFN induction entry is reported as “−” with IFN (Dose Concentration 0.1 μM), “+” in the assay with IFN (Dose Concentration 1.0 μM), “+” in the assay on IFN (Dose Concentration 10.0 μM) and “±” in the assay with IFN (Dose Concentration 100.0 μM). Moreover, the TNF induction result was “−” in the assay on TNF (Dose Concentration 0.1 μM), “+” in the assay with TNF (Dose Concentration 1.0 μM), “+” in the assay on TNF (Dose Concentration 10.0 μM) and “+” in the assay with TNF (Dose Concentration 100.0 μM).

As to `CCCCc1nc2c(N)nc3cccnc3c2n1CCCCNC(=O)NC1CCCCC1` [Example 48, N-[4-(4-Amino-2-butyl-1H-imidazo[4,5-c][1,5]naphthyridin-1-yl)butyl]-N′-cyclohexylurea], the IFN induction entry is given as “+” in the assay with IFN (Dose Concentration 0.1 μM), “+” in the assay on IFN (Dose Concentration 1.0 μM), “+” with IFN (Dose Concentration 10.0 μM) and “−” in the assay with IFN (Dose Concentration 100.0 μM). The TNF induction result in the assay with TNF (Dose Concentration 0.1 μM) is recorded as “−”; with TNF (Dose Concentration 1.0 μM), “+”; in the assay on TNF (Dose Concentration 10.0 μM), “+”; in the assay on TNF (Dose Concentration 100.0 μM), “−”.

For the compound `CCCCNC(=O)NCCCCn1c(CCCC)nc2c(N)nc3cccnc3c21` [Example 49, N-[4-(4-Amino-2-butyl-1H-imidazo[4,5-c][1,5]naphthyridin-1-yl)butyl]-N′-butylurea], the IFN induction result in the assay on IFN (Dose Concentration 0.1 μM), in the assay with IFN (Dose Concentration 1.0 μM), in the assay with IFN (Dose Concentration 10.0 μM) and in the assay with IFN (Dose Concentration 100.0 μM) was “+” in each case. In addition, the TNF induction result is “−” in the assay on TNF (Dose Concentration 0.1 μM), “+” in the assay on TNF (Dose Concentration 1.0 μM), “+” with TNF (Dose Concentration 10.0 μM) and “+” in the assay with TNF (Dose Concentration 100.0 μM).

Consider `CCCCc1nc2c(N)nc3cccnc3c2n1CCCCNC(=O)Oc1ccccc1` [Example 50, Phenyl N-[4-(4-Amino-2-butyl-1H-imidazo[4,5-c][1,5]naphthyridin-1-yl)butyl]carbamate], for which the values for the IFN induction entry with IFN (Dose Concentration 1.0 μM), with IFN (Dose Concentration 10.0 μM) and in the assay with IFN (Dose Concentration 100.0 μM) were “+”, “+” and “−”, respectively. The TNF induction result in the assay on TNF (Dose Concentration 1.0 μM) is “+”; with TNF (Dose Concentration 10.0 μM), “+”; with TNF (Dose Concentration 100.0 μM), “−”.

For the compound `CCCCc1nc2c(N)nc3cccnc3c2n1CCCCNC(=O)c1ccco1` [Example 51, N-[4-(4-Amino-2-butyl-1H-imidazo[4,5-c][1,5]naphthyridin-1-yl)butyl]-2-furamide], the IFN induction entry in the assay with IFN (Dose Concentration 1.0 μM), with IFN (Dose Concentration 10.0 μM) and in the assay with IFN (Dose Concentration 100.0 μM) was “+” throughout. The TNF induction entry in the assay with TNF (Dose Concentration 1.0 μM) is “+”; in the assay on TNF (Dose Concentration 10.0 μM), “+”; in the assay on TNF (Dose Concentration 100.0 μM) it was “−”.

`CCCCc1nc2c(N)nc3cccnc3c2n1CCCCNC(=O)c1ccccc1` [Example 52, N-[4-(4-Amino-2-butyl-1H-imidazo[4,5-c][1,5]naphthyridin-1-yl)butyl]benzamide]: the IFN induction result is on record as “+” in the assay on IFN (Dose Concentration 1.0 μM), “+” in the assay with IFN (Dose Concentration 10.0 μM) and “−” in the assay on IFN (Dose Concentration 100.0 μM). For the same compound, the results for the TNF induction result in the assay on TNF (Dose Concentration 1.0 μM), in the assay with TNF (Dose Concentration 10.0 μM) and with TNF (Dose Concentration 100.0 μM) were “+”, “+” and “−”, respectively.

In the case of `CCCCc1nc2c(N)nc3cccnc3c2n1CCCCNC(=O)NCc1ccccc1` [Example 53, N-[4-(4-Amino-2-butyl-1H-imidazo[4,5-c][1,5]naphthyridin-1-yl)butyl]-N′-benzylurea], the IFN induction entry with IFN (Dose Concentration 0.1 μM), with IFN (Dose Concentration 1.0 μM), in the assay on IFN (Dose Concentration 10.0 μM) and in the assay on IFN (Dose Concentration 100.0 μM) was “+” throughout. In addition, the TNF induction result with TNF (Dose Concentration 0.1 μM) is on record as “−”; in the assay on TNF (Dose Concentration 1.0 μM) it was “+”; in the assay on TNF (Dose Concentration 10.0 μM), “+”; with TNF (Dose Concentration 100.0 μM), “−”.

With `CCCCc1nc2c(N)nc3cccnc3c2n1CCCCNC(=O)c1cccnc1` [Example 54, N^3-[4-(4-Amino-2-butyl-1H-imidazo[4,5-c][1,5]naphthyridin-1-yl)butyl]nicotinamide], the IFN induction entry with IFN (Dose Concentration 1.0 μM), with IFN (Dose Concentration 10.0 μM) and in the assay with IFN (Dose Concentration 100.0 μM) was “+” in each case. Also, the TNF induction entry with TNF (Dose Concentration 1.0 μM), in the assay on TNF (Dose Concentration 10.0 μM) and in the assay with TNF (Dose Concentration 100.0 μM) was “+” each time.

With `CCCCc1nc2c(N)nc3cccnc3c2n1CCCCNC(=O)Cc1ccccc1` [Example 55, N-[4-(4-Amino-2-butyl-1H-imidazo[4,5-c][1,5]naphthyridin-1-yl)butyl]phenylaceatamide], the IFN induction result in the assay with IFN (Dose Concentration 1.0 μM), in the assay with IFN (Dose Concentration 10.0 μM) and in the assay on IFN (Dose Concentration 100.0 μM) was “+” each time. Moreover, the TNF induction result in the assay on TNF (Dose Concentration 1.0 μM) is listed as “+”; in the assay with TNF (Dose Concentration 10.0 μM), “+”; in the assay with TNF (Dose Concentration 100.0 μM), “−”.

For the compound `CCCCc1nc2c(N)nc3cccnc3c2n1CCCCNC(=O)OCc1ccccc1` [Example 56, Benzyl N-[4-(4-Amino-2-butyl-1H-imidazo[4,5-c][1,5]naphthyridin-1-yl)butyl]carbamate], the IFN induction entry in the assay on IFN (Dose Concentration 0.1 μM) is “−”; in the assay with IFN (Dose Concentration 1.0 μM), “+”; with IFN (Dose Concentration 10.0 μM), “+”; with IFN (Dose Concentration 100.0 μM), “−”. The TNF induction entry is “−” in the assay with TNF (Dose Concentration 0.1 μM), “−” with TNF (Dose Concentration 1.0 μM), “+” in the assay on TNF (Dose Concentration 10.0 μM) and “−” with TNF (Dose Concentration 100.0 μM).

Regarding `CCCCc1nc2c(N)nc3cccnc3c2n1CCCCNC(=O)OCC1c2ccccc2-c2ccccc21` [Example 57, 9H-9-Fluorenylmethyl N-[4-(4-Amino-2-butyl-1H-imidazo[4,5-c][1,5]naphthyridin-1-yl)butyl]carbamate], the IFN induction result with IFN (Dose Concentration 0.1 μM) was “−”; in the assay on IFN (Dose Concentration 1.0 μM), “+”; with IFN (Dose Concentration 10.0 μM) it was “+”; in the assay with IFN (Dose Concentration 100.0 μM), “+”. Moreover, the TNF induction entry is given as “−” with TNF (Dose Concentration 0.1 μM), “−” with TNF (Dose Concentration 1.0 μM), “+” in the assay with TNF (Dose Concentration 10.0 μM) and “+” with TNF (Dose Concentration 100.0 μM).

Regarding `CCCCc1nc2c(N)nc3cccnc3c2n1CCCCNC(=O)OCC` [Example 58, Ethyl N-[4-(4-Amino-2-butyl-1H-imidazo[4,5-c][1,5]naphthyridin-1-yl)butyl]carbamate], the IFN induction result in the assay with IFN (Dose Concentration 0.1 μM) is on record as “+”; in the assay with IFN (Dose Concentration 1.0 μM), “+”; in the assay with IFN (Dose Concentration 10.0 μM) it was “+”; in the assay on IFN (Dose Concentration 100.0 μM) it was “−”. Further, the TNF induction result is listed as “−” in the assay on TNF (Dose Concentration 0.1 μM), “+” with TNF (Dose Concentration 1.0 μM), “+” with TNF (Dose Concentration 10.0 μM) and “−” in the assay on TNF (Dose Concentration 100.0 μM).

With `CCCCc1nc2c(N)nc3cccnc3c2n1CCNC(=O)CCc1ccccc1` [Example 96, N^1-[2-(4-Amino-2-butyl-1H-imidazo[4,5-c][1,5]naphthyridin-1-yl)ethyl]-3-phenylpropanamide Hydrochloride], the IFN induction result in the assay on IFN (Dose Concentration 0.1 μM) is on record as “−”; with IFN (Dose Concentration 1.0 μM), “±”; in the assay on IFN (Dose Concentration 10.0 μM) it was “+”; in the assay on IFN (Dose Concentration 100.0 μM), “+”. Also, the TNF induction result in the assay on TNF (Dose Concentration 0.1 μM) is recorded as “−”; with TNF (Dose Concentration 1.0 μM) it was “−”; in the assay with TNF (Dose Concentration 10.0 μM), “+”; in the assay with TNF (Dose Concentration 100.0 μM) it was “+”.

`CCCCc1nc2c(N)nc3cccnc3c2n1CCNC(=O)C(N)CC(C)C` (centres unmarked) [Example 102, N^1-[2-(4-Amino-2-butyl-1H-imidazo[4,5-c][1,5]naphthyridin-1-yl)ethyl]-2-amino-4-methylpentanamide]: the IFN induction entry with IFN (Dose Concentration 0.1 μM), in the assay on IFN (Dose Concentration 1.0 μM), in the assay on IFN (Dose Concentration 10.0 μM) and in the assay with IFN (Dose Concentration 100.0 μM) was “+” in each case. Besides, the TNF induction entry with TNF (Dose Concentration 0.1 μM), in the assay with TNF (Dose Concentration 1.0 μM), in the assay with TNF (Dose Concentration 10.0 μM) and in the assay with TNF (Dose Concentration 100.0 μM) was “+” each time.

`CCCCc1nc2c(N)nc3cccnc3c2n1CCCCNC(=O)CCCCn1cnc2c1c(=O)n(C)c(=O)n2C` [Example 105, N^1-[4-(4-Amino-2-butyl-1H-imidazo[4,5-c][1,5]naphthyridin-1-yl)butyl]-5-(1,3-dimethyl-2,6-oxo-2,3,6,7-tetrahydro-1H-purinyl)pentamide]: the IFN induction entry in the assay on IFN (Dose Concentration 0.1 μM), in the assay with IFN (Dose Concentration 1.0 μM), in the assay with IFN (Dose Concentration 10.0 μM) and with IFN (Dose Concentration 100.0 μM) was “+” throughout. The TNF induction entry in the assay on TNF (Dose Concentration 0.1 μM) is “−”; with TNF (Dose Concentration 1.0 μM), “−”; in the assay with TNF (Dose Concentration 10.0 μM), “+”; in the assay with TNF (Dose Concentration 100.0 μM) it was “+”.

These data come from patent US7678918B2, “Intermediates for imidazonaphthyridines” (3M Innovative Properties Company, priority 1997, dated 2010).
